Read-outs that look alike come from different tables or passages of the source.
How the values were obtained:
Type in all cases: cell-based
[1] = molecular target: protein kinases (human kinome) (Homo sapiens, UniProt Q15759); details: for logFC MAPK11 (Q15759): direction of change down; for logFC: MAPK11 (Q15759)
[2] = molecular target: T1, protein kinases (human kinome) (Homo sapiens, UniProt P78356); details: PIP4K2B (P78356)
T1 sequence (P78356 1-416): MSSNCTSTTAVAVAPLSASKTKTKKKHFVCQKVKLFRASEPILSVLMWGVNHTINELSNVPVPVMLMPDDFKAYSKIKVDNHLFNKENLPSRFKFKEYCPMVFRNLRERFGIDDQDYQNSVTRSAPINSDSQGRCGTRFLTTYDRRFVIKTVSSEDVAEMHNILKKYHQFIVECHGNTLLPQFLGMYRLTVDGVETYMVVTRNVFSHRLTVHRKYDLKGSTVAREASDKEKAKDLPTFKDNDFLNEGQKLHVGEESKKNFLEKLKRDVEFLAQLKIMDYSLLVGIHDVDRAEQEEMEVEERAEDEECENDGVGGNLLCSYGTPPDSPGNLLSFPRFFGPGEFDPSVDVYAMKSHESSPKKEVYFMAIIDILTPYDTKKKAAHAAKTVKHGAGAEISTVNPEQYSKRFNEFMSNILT

[3] = molecular target: protein kinases (human kinome) (Homo sapiens, UniProt Q96S53); details: experiment wp147, 4 uM
[4] = molecular target: protein kinases (human kinome) (Homo sapiens, UniProt Q6P5Z2)
Chain of protein kinases (human kinome) (Homo sapiens, UniProt Q6P5Z2) (Q6P5Z2 whole entry): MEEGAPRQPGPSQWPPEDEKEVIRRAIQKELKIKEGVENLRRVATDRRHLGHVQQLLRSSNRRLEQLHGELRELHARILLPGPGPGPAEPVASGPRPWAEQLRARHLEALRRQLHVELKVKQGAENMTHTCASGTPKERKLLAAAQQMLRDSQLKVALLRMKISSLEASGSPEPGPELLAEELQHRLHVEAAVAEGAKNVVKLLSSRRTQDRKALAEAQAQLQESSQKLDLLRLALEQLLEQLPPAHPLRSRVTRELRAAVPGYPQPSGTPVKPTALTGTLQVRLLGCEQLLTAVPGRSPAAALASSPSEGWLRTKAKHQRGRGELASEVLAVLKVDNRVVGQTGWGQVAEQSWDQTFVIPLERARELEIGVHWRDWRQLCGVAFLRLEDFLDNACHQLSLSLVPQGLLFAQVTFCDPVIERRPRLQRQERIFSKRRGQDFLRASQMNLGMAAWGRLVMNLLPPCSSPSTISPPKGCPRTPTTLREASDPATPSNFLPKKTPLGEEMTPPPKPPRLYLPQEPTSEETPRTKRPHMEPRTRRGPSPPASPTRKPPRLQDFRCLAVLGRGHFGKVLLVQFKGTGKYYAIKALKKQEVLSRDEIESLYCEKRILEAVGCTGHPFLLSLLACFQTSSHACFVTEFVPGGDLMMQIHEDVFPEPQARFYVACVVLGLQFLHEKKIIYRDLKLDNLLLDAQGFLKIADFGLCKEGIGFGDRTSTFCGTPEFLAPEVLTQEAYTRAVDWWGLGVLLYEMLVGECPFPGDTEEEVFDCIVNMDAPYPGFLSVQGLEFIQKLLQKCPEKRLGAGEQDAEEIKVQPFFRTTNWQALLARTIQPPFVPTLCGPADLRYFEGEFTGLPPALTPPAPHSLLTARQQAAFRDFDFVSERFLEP

[5] = molecular target: protein kinases (human kinome) (Homo sapiens, UniProt P31749); details: for logFC: AKT1 (P31749)
Chain of protein kinases (human kinome) (Homo sapiens, UniProt P31749) (P31749 whole entry): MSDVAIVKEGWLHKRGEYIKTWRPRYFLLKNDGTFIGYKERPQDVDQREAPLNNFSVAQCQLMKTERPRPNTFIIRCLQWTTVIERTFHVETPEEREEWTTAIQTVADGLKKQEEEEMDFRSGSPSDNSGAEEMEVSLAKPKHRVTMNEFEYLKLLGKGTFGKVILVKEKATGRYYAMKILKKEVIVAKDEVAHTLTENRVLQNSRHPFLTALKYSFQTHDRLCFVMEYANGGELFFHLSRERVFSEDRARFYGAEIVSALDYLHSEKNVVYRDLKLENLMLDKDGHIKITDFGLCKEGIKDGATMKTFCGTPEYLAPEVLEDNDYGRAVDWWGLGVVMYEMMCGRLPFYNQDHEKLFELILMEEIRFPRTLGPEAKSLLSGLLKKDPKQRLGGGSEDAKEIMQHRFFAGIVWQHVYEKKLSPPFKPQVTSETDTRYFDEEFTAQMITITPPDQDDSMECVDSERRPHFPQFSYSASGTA

[6] = molecular target: protein kinases (human kinome) (Homo sapiens, UniProt Q99640); details: experiment wp131
Chain of protein kinases (human kinome) (Homo sapiens, UniProt Q99640) (Q99640 whole entry): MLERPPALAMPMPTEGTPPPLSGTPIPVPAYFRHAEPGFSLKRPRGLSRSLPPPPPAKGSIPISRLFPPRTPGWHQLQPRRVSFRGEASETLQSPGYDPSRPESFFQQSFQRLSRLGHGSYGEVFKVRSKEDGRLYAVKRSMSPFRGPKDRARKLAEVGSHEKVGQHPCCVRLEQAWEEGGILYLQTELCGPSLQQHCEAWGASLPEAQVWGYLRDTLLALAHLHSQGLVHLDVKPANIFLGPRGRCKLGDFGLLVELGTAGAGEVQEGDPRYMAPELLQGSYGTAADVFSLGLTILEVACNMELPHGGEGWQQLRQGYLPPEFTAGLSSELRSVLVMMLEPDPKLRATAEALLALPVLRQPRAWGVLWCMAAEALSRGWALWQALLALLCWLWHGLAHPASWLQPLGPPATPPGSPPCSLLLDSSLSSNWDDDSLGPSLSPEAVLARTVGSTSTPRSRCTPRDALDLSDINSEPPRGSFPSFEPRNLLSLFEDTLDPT

[7] = molecular target: protein kinases (human kinome) (Homo sapiens, UniProt Q86UX6)
Chain of protein kinases (human kinome) (Homo sapiens, UniProt Q86UX6) (Q86UX6 whole entry): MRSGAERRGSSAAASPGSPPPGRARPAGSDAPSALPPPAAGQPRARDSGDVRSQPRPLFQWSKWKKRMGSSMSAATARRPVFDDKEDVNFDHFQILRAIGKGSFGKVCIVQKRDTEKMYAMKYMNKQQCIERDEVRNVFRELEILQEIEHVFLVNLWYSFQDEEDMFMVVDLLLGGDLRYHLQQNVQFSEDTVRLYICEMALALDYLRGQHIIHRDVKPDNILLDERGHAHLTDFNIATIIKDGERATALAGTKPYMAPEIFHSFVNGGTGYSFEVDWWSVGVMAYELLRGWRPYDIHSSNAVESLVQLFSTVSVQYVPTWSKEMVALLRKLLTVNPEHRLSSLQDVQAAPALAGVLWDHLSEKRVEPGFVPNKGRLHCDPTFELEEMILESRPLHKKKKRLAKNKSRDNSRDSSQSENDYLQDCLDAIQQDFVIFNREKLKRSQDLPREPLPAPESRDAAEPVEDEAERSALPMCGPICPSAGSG

[8] = molecular target: protein kinases (human kinome) (Homo sapiens, UniProt P54760); details: experiment wp172
[9] = molecular target: protein kinases (human kinome) (Homo sapiens, UniProt Q52WX2); details: for logFC: SBK1 (Q52WX2)
Chain of protein kinases (human kinome) (Homo sapiens, UniProt Q52WX2) (Q52WX2 whole entry): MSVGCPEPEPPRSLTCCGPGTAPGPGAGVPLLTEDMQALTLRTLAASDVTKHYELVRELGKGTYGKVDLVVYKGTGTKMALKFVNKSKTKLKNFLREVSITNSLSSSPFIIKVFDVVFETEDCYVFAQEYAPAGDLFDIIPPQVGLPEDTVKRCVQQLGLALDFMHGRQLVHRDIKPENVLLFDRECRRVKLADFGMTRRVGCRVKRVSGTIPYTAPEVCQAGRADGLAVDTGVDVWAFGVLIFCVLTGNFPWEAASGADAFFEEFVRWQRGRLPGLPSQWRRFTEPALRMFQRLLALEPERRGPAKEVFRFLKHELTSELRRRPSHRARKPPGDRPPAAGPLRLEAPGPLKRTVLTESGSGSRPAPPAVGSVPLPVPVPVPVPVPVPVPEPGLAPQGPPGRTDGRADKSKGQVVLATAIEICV

[10] = molecular target: protein kinases (human kinome) (Homo sapiens, UniProt Q15120); details: experiment wp160, 1 hr
Chain of protein kinases (human kinome) (Homo sapiens, UniProt Q15120) (Q15120 whole entry): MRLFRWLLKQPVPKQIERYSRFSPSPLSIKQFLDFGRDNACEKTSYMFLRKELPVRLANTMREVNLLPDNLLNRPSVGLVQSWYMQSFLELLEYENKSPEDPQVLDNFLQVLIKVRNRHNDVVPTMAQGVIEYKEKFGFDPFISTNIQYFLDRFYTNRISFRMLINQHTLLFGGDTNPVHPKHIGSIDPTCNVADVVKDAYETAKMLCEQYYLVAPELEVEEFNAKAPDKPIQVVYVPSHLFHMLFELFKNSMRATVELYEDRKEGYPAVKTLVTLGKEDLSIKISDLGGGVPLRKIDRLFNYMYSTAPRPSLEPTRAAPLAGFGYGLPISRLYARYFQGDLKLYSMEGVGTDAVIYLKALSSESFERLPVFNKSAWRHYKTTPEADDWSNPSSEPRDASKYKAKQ

[11] = molecular target: protein kinases (human kinome) (Homo sapiens, UniProt Q9UHD2); details: experiment wp146
Chain of protein kinases (human kinome) (Homo sapiens, UniProt Q9UHD2) (Q9UHD2 whole entry): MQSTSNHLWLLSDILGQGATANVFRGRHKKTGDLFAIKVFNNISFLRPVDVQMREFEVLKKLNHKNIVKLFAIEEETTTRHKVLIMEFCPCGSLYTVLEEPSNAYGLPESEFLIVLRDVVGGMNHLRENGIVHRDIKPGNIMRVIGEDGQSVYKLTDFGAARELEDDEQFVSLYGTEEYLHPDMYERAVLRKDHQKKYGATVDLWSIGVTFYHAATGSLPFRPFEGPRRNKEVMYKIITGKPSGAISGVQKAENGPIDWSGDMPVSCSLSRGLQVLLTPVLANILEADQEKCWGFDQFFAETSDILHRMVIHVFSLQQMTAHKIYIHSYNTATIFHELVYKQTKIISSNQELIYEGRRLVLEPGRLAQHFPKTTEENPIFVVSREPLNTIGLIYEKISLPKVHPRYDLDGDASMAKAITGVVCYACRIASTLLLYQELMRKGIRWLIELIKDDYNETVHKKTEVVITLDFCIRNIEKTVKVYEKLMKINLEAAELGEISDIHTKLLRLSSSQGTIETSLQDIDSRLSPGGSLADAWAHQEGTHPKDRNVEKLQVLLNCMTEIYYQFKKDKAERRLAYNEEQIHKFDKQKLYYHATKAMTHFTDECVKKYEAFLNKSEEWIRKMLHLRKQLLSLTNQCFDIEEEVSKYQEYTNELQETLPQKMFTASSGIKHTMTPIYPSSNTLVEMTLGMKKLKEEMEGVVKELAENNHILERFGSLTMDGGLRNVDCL

[12] = molecular target: protein kinases (human kinome) (Homo sapiens, UniProt Q8NFU5); details: IPMK (Q8NFU5)
Chain of protein kinases (human kinome) (Homo sapiens, UniProt Q8NFU5) (Q8NFU5 whole entry): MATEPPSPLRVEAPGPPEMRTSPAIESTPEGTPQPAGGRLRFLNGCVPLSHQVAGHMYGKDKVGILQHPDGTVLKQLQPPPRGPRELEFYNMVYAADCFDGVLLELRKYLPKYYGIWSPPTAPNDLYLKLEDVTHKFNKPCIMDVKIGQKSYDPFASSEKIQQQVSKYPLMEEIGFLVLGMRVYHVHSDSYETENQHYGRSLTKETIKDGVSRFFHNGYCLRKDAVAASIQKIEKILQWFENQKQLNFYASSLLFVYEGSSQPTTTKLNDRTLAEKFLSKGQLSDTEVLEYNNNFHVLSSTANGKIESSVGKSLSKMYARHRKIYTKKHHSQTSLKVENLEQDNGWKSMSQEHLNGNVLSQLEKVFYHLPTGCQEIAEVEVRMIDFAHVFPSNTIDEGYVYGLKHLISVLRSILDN

[13] = molecular target: protein kinases (human kinome) (Homo sapiens, UniProt P52429); details: protein DGKE (P52429); experiment wp056; down
[14] = molecular target: protein kinases (human kinome) (Homo sapiens, UniProt Q8TEA7); details: experiment wp056
[15] = Experiment wp114, direction of change down

Chain of protein kinases (human kinome) (Homo sapiens, UniProt Q15759) (Q15759 whole entry): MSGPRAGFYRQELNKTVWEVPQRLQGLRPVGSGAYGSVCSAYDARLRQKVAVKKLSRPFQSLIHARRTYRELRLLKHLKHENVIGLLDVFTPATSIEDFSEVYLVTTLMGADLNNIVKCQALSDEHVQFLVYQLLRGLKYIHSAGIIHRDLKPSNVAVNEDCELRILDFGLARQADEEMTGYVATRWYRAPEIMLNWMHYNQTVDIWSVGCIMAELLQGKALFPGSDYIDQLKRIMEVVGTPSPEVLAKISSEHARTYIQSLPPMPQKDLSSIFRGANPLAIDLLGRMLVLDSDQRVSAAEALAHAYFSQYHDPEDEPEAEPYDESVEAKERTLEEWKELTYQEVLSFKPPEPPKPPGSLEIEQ

Cc1ccc(NC(=O)c2cccc(C(F)(F)F)c2)cc1N1Cc2cnc(Nc3ccc(N4CCN(Cc5cn(CCCCCOc6cccc7c6C(=O)N(C6CCC(=O)NC6=O)C7=O)nn5)CC4)nc3)nc2N(C)C1=O (stereo not shown) [DB0646, N-(3-(7-((6-(4-((1-(5-((2-(2,6-Dioxopiperidin-3-yl)-1,3-dioxoisoindolin-4-yl)oxy)pentyl)-1H-1,2,3-triazol-4-yl)methyl)piperazin-1-v)pyridin-3-yl)amino)-1-methyl-2-oxo-1,4-dihydropyrimido[4,5-d]pyrimidin-3(2H)-yl)-4-methylphenyl)-3-(trifluoromethyl)benzamide]
logFC MAPK11 (Q15759) ([1]; Experiment wp105): −0.3998
logFC MAPK11 (Q15759) ([1]; Experiment wp114): −0.6209
logFC ([1]; experiment wp105): −0.3998
logFC ([1]; experiment wp114): −0.6209
logFC ([2]; experiment wp045): −1.296
logFC ([2]; experiment wp103): −0.6848
logFC ([2]; experiment wp107): −1.024
logFC ([2]; experiment wp117): −1.027
logFC ([2]; experiment wp152): −1.147
logFC ([2]; experiment wp160, 4 hr): −0.5025
logFC ([2]; experiment wp160, 8 hr): −0.8848

CC(C)(C)c1nc(-c2cccc(NS(=O)(=O)c3c(F)cccc3F)c2F)c(-c2ccnc(NCCOCCNC(=O)CCOCCOCCNc3cccc4c3C(=O)N(C3CCC(=O)NC3=O)C4=O)n2)s1 (stereo not shown) [DD.03.106]
logFC TESK2 (Q96S53-1) ([3]; direction of change down): −0.3831
logFC TESK2 ([3]; protein TESK2 (Q96S53-1), down): −0.3831

Cc1ncsc1-c1ccc([C@H](C)NC(=O)[C@@H]2C[C@@H](O)CN2C(=O)[C@@H](NC(=O)CCOCCOCCN2CCN(c3ccc(Nc4ncc(Cl)c(Nc5ccccc5S(=O)(=O)C(C)C)n4)cc3)CC2)C(C)(C)C)cc1 [FMF.06.098.1]
logFC PKN3 (Q6P5Z2) [4, 15]: −0.451
logFC PKN3 ([4]; protein PKN3 (Q6P5Z2), experiment wp114, down): −0.451

C[C@@H]1C[C@@H](O)c2ncnc(N3CCN(C(=O)[C@H](CNCCCCCCCCCCc4cccc5c4C(=O)N(C4CCC(=O)NC4=O)C5=O)c4ccc(Cl)cc4)CC3)c21 (stereo partly shown) [INY.03.041.01]
logFC ([5]; experiment wp118): −2.258
logFC ([5]; experiment wp135, 4 hr): −1.225
logFC of AKT1 (P31749) ([5]; Experiment wp135, 4 hr): −1.225
logFC of AKT1 (P31749) ([5]; experiment wp118): −2.258

Cn1c(=O)c(-c2c(Cl)cccc2Cl)cc2cnc(Nc3ccc(OCCNC(=O)CCCCCCNC(=O)COc4cccc5c4C(=O)N(C4CCC(=O)NC4=O)C5=O)cc3)nc21 (stereo not shown) [SB1.G.192.1]
logFC PKMYT1 (Q99640) ([6]; direction of change down): −0.7301
logFC PKMYT1 ([6]; protein PKMYT1 (Q99640), down): −0.7301

CC(C)S(=O)(=O)c1ccccc1Nc1nc(Nc2ccc(N3CCN(CCOCCNC(=O)CNc4cccc5c4C(=O)N(C4CCC(=O)NC4=O)C5=O)CC3)cc2)ncc1Cl (stereo not shown) [SK.3.91]
logFC STK32C (Q86UX6) [7, 15]: −0.6189
logFC STK32C ([7]; protein STK32C (Q86UX6), experiment wp114, down): −0.6189
logFC EPHB4 (P54760) ([8]; direction of change down): −0.5059
logFC EPHB4 ([8]; protein EPHB4 (P54760), down): −0.5059
logFC of SBK1 (Q52WVX2) ([9]; Experiment wp107): −0.921
logFC ([9]; experiment wp107): −0.921
logFC ([9]; experiment wp133, 2 hr): −0.6852
logFC ([9]; experiment wp133, 4 hr): −0.9029
logFC of SBK1 (Q52WX2) ([9]; experiment wp133, 2 hr): −0.6852
logFC of SBK1 (Q52WX2) ([9]; experiment wp133, 4 hr): −0.9029
logFC PDK3 (Q15120-1) [10]: −0.9801
logFC of PDK3 (Q15120-1) [10]: −0.9801

Cc1cc(Nc2ncc(Br)c(Nc3cccc(F)c3C(N)=O)n2)ccc1S(=O)(=O)NCCOCCOCCOCCOCCNc1cccc2c1C(=O)N(C1CCC(=O)NC1=O)C2=O (stereo not shown) [TMX.02.174]
logFC TBK1 (Q9UHD2) ([11]; direction of change down): −0.5951
logFC TBK1 ([11]; protein TBK1 (Q9UHD2), down): −0.5951

Nc1ncc(-c2ccc(S(=O)(=O)N(CCCNC(=O)CCOCCOCCOCCOCCOCCNc3cccc4c3C(=O)N(C3CCC(=O)NC3=O)C4=O)C3CC3)cc2)cc1-c1ccc2c(c1)CCNC2=O (stereo not shown) [WH.10417.099]
logFC ([12]; experiment wp056): −0.5845
logFC ([12]; experiment wp107): −0.4154

C=CCn1c(=O)c2cnc(Nc3ccc(N4CCN(CCCNc5cccc6c5C(=O)N(C5CCC(=O)NC5=O)C6=O)CC4)cc3)nc2n1-c1cccc(C(C)(C)O)n1 (stereo not shown) [ZNL.02.096]
logFC DGKE [13]: −0.3512
logFC TBCK (Q8TEA7) ([14]; direction of change down): −0.3334
logFC TBCK ([14]; protein TBCK (QSTEA7), down): −0.3334

Reference: patent publication US20240269139A1, “COMPOUNDS FOR TARGETED PROTEIN DEGRADATION OF KINASES” (DANA-FARBER CANCER INSTITUTE, INC., priority 2020, published 2024)
